Data: patent publication US10131657B2, “Bromodomain inhibitors” (AbbVie Inc., priority 2013, dated 2018)

system: breast cancer cell line MX-1; test: MX-1 cell line proliferation assay, Method A; assay type: cell-based; settings: Homo sapiens, MX1; MX-1 cells, 96-well, 72 hours, Cell Titer Glo; read-out: Cellular proliferation: EC50 Method A
Description: The impact of compounds of the Examples on cancer cell proliferation was determined using the breast cancer cell line MX-1 (ATCC) in a 3-day proliferation assay and the data are reported in Table 1.
MX-1 cells were maintained in RPMI 1640 medium (Sigma) supplemented with 10% FBS at 37° C. and an atmosphere of 5% CO2. For compound testing, MX-1 cells were plated in 96-well black bottom plates at a density of 5000 cells/well in 90 μL of culture media and incubated at 370 overnight to allow cell adhesion and spreading. Compound dilution series were prepared in DMSO via a 3-fold serial dilution from 3 mM to 0.1 μM. The DMSO dilution series were then diluted 1:100 in phosphate buffered saline, and 10 μL of the resulted solution were added to the appropriate wells of the MX-1 cell plate. The final compound concentrations in the wells were 3, 1, 0.3, 0.1, 0.03, 0.01, 0.003, 0.001, 0.0003 and 0.0001 μM.
Luminescence readings from the Cell Titer Glo assay were normalized to the DMSO treated cells and analyzed using the GraphPad Prism software with sigmoidal curve fitting to obtain ECs50s. The minimum significant ratio (MSR) was determined to evaluate assay reproducibility (Eastwood et al., (2006) J Biomol Screen, 11: 253-261).

Row | EC50 [nM] | SMILES
1 | 43.1 | CC(C)c1ccc(S(=O)(=O)Nc2cccc(Oc3ccc(S(C)(=O)=O)cc3-c3cn(C)c(=O)c4[nH]ccc34)c2)cc1 [Example 46, N-{3-[2-(6-methyl-7-oxo-6,7-dihydro-1H-pyrrolo[2,3-c]pyridin-4-yl)-4-(methylsulfonyl)phenoxy]phenyl}-4-(propan-2-yl)benzenesulfonamide]
2 | > 1000 | CC(=O)N1CCN(C(=O)c2cccc(Oc3ccc(S(C)(=O)=O)cc3-c3cn(C)c(=O)c4[nH]ccc34)c2)CC1 [Example 30, 4-[2-{3-[(4-acetylpiperazin-1-yl)carbonyl]phenoxy}-5-(methylsulfonyl)phenyl]-6-methyl-1,6-dihydro-7H-pyrrolo[2,3-c]pyridin-7-one]
3 | 184 | CCS(=O)(=O)Nc1cc(-c2cn(C)c(=O)c3[nH]ccc23)c(Oc2ccc(F)cc2F)cc1CN1CCCC1c1ccccc1 (centres unmarked) [Example 14, N-{4-(2,4-difluorophenoxy)-5-(6-methyl-7-oxo-6,7-dihydro-1H-pyrrolo[2,3-c]pyridin-4-yl)-2-[(2-phenylpyrrolidin-1-yl)methyl]phenyl}ethanesulfonamide]
4 | > 1000 | CN1CCN(CC(=O)N2CCC(Nc3ccc(S(C)(=O)=O)cc3-c3cn(C)c(=O)c4[nH]ccc34)CC2)CC1 [Example 96, 6-methyl-4-[2-({1-[(4-methylpiperazin-1-yl)acetyl]piperidin-4-yl}amino)-5-(methylsulfonyl)phenyl]-1,6-dihydro-7H-pyrrolo[2,3-c]pyridin-7-one]
5 | 1510 | CCNC(=O)c1cc2c(-c3cc(S(=O)(=O)CC)ccc3Oc3c(C)cccc3NCC3CC3)cn(C)c(=O)c2[nH]1 [Example 119, 4-[2-{2-[(cyclopropylmethyl)amino]-6-methylphenoxy}-5-(ethylsulfonyl)phenyl]-N-ethyl-6-methyl-7-oxo-6,7-dihydro-1H-pyrrolo[2,3-c]pyridine-2-carboxamide]
6 | > 1000 | Cn1cc(-c2cc(S(C)(=O)=O)ccc2Oc2cccc(C(=O)N3CCC(N4CCCC4)CC3)c2)c2cc[nH]c2c1=O [Example 24, 6-methyl-4-[5-(methylsulfonyl)-2-(3-{[4-(pyrrolidin-1-yl)piperidin-1-yl]carbonyl}phenoxy)phenyl]-1,6-dihydro-7H-pyrrolo[2,3-c]pyridin-7-one]
7 | 451 | Cn1cc(-c2cc(S(C)(=O)=O)ccc2Oc2cccc(NS(=O)(=O)c3ccc([N+](=O)[O-])cc3)c2)c2cc[nH]c2c1=O [Example 43, N-{3-[2-(6-methyl-7-oxo-6,7-dihydro-1H-pyrrolo[2,3-c]pyridin-4-yl)-4-(methylsulfonyl)phenoxy]phenyl}-4-nitrobenzenesulfonamide]
8 | 110 | CCS(=O)(=O)Nc1cc(-c2cn(C)c(=O)c3[nH]ccc23)c(Oc2ccc(F)cc2F)cc1CN(C)C [Example 2, N-[4-(2,4-difluorophenoxy)-2-[(dimethylamino)methyl]-5-(6-methy-7-oxo-6,7-dihydro-1H-pyrrolo[2,3-c]pyridin-4-yl)phenyl]ethanesulfonamide]
9 | > 1000 | CN(C)CC(=O)N1CCC(Nc2ccc(S(C)(=O)=O)cc2-c2cn(C)c(=O)c3[nH]ccc23)CC1 [Example 85, 4-[2-({1-[(dimethylamino)acetyl]piperidin-4-yl}amino)-5-(methylsulfonyl)phenyl]-6-methyl-1,6-dihydro-7H-pyrrolo[2,3-c]pyridin-7-one]
10 | > 1000 | Cn1cc(-c2cc(S(C)(=O)=O)ccc2Oc2cccc(NS(=O)(=O)c3ccc(S(C)(=O)=O)cc3)c2)c2cc[nH]c2c1=O [Example 54, N-{3-[2-(6-methyl-7-oxo-6,7-dihydro-1H-pyrrolo[2,3-c]pyridin-4-yl)-4-(methylsulfonyl)phenoxy]phenyl}-4-(methylsulfonyl)benzenesulfonamide]
11 | 325 | CC(=O)Nc1ccc(CN2CCC(Nc3ccc(S(C)(=O)=O)cc3-c3cn(C)c(=O)c4[nH]ccc34)CC2)cc1 [Example 87, N-{4-[(4-{[2-(6-methyl-7-oxo-6,7-dihydro-1H-pyrrolo[2,3-c]pyridin-4-yl)-4-(methylsulfonyl)phenyl]amino}piperidin-1-yl)methyl]phenyl}acetamide]
